Source: patent publication US12065436B2, “Cardiac sarcomere inhibitors” (Cytokinetics, Inc., priority 2018, dated 2024)

Target: bovine cardiac myofibrils (full-length cardiac myosin ATPase in the native sarcomere) (Bos taurus (Bovine), UniProt Q9BE39)
Assay: Skinned bovine cardiac myofibril ATPase assay (PK/LDH-coupled)
Assay type: biochemical
Conditions: Ca2+ activating to 75% of maximal rate; for CDMF75 IC15: concentration giving 15% inhibition; for IC50: read-out: CDMF75 IC50
Procedure: To evaluate the effect of compounds on the ATPase activity of full-length cardiac myosin in the context of the native sarcomere, skinned myofibril assays were performed. Bovine cardiac myofibrils were obtained by homogenizing bovine cardiac left ventricular tissue in the presence of a detergent such as triton X-100. Such treatment removes membranes and a majority of the soluble cytoplasmic proteins but leaves intact the cardiac sarcomeric acto-myosin apparatus. Myofibril preparations retain the ability to hydrolyze ATP in an Ca^2+ regulated manner. ATPase activities of such myofibril preparations in the presence and absence of compounds were assayed at Ca^2+ concentrations activating to a defined fraction of the maximal rate (i.e., 25%, 75%). Small molecule agents were assessed for their ability to inhibit the steady-state ATPase activity of bovine cardiac myofibrils using pyruvate kinase and lactate dehydrogenase (PK/LDH)-coupled enzyme system. This assay regenerates myosin-produced ADP into ATP by oxidizing NADH, producing an absorbance change at 340 nm. Prior to testing small molecule agents, the bovine cardiac myofibrils were assessed for their calcium responsiveness and the calcium concentration that achieves either a 50% (pCa50) or 75% (pCa75) activation of the myofibril system was chosen as the final condition for assessing the inhibitory activity of the small molecule agents. All enzymatic activity was measured in a buffered solution containing 12 mM PIPES (piperazine-N,N′-bis(2-ethanesulfonic acid), 2 mM magnesium chloride at pH 6.8 (PM 12 buffer). Final assay conditions were 1 mg/mL of bovine cardiac myofibrils, 4 U/mL pyruvate kinase, 6 U/mL lactate dehydrogenase, 50 μM ATP, 0.1 mg/mL BSA (bovine serum albumin), 10 ppm antifoam, 1 mM DTT, 0.5 mM NADH, 1.5 mM PEP, 0.6 mM EGTA, and an amount of CaCl2) sufficient to achieve either 50% or 75% activation of the myofibril ATPase activity.

bovine cardiac myofibrils (full-length cardiac myosin ATPase in the native sarcomere), sequence (Q9BE39 whole entry): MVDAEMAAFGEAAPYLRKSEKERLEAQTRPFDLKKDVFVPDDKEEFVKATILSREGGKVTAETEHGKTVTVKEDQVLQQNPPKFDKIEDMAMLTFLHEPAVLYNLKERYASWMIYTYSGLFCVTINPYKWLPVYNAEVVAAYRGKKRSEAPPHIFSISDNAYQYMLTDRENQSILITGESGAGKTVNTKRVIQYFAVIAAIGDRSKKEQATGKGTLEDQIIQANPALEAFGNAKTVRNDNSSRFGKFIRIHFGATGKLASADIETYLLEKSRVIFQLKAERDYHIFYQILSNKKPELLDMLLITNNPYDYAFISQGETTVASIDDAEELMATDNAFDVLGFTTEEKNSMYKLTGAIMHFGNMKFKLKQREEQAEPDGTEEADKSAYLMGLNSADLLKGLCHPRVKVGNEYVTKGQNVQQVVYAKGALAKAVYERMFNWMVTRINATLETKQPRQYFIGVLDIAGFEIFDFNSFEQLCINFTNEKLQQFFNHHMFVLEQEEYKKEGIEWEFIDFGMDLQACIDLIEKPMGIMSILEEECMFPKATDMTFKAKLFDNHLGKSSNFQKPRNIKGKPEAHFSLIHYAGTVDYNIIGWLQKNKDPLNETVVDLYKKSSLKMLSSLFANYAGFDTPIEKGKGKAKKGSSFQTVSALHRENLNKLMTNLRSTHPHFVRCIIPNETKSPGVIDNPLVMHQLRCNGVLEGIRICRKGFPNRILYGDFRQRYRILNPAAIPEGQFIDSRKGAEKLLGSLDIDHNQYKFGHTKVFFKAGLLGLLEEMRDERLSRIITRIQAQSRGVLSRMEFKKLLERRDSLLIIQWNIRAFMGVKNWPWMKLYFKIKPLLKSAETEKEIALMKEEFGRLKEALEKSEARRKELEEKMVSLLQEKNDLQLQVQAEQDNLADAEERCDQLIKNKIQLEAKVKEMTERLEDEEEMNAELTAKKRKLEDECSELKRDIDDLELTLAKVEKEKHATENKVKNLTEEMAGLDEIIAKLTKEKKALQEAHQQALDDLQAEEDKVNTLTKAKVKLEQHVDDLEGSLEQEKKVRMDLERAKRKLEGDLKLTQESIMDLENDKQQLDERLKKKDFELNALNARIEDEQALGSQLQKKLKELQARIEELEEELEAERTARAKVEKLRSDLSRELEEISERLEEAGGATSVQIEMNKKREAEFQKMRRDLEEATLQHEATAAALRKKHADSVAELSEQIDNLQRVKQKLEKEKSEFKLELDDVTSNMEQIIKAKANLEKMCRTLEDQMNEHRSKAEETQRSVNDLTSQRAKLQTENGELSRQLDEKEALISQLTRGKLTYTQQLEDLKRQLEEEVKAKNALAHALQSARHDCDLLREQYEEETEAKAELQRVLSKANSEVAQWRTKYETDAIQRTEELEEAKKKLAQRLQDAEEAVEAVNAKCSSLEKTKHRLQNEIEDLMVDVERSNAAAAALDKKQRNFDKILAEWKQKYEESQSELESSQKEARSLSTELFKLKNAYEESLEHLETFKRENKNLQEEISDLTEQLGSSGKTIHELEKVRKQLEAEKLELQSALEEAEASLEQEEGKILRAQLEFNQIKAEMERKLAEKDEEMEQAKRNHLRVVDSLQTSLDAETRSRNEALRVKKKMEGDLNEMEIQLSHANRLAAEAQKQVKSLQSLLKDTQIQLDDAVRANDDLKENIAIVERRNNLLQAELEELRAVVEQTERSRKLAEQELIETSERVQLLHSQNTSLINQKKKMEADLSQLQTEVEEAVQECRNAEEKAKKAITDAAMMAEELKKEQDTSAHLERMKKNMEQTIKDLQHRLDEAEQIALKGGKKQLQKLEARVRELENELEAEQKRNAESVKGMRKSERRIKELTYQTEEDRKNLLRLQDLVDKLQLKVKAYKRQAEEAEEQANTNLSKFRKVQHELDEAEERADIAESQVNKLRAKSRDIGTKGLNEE
bovine cardiac myofibrils (full-length cardiac myosin ATPase in the native sarcomere), sequence (P85100 whole entry partner): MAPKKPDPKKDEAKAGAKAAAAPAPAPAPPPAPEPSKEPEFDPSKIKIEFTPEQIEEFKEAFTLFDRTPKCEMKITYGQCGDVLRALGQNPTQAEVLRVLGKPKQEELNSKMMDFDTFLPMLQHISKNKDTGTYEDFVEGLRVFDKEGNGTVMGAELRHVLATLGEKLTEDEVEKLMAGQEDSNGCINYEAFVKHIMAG
bovine cardiac myofibrils (full-length cardiac myosin ATPase in the native sarcomere), sequence (Q3SZE5 whole entry partner): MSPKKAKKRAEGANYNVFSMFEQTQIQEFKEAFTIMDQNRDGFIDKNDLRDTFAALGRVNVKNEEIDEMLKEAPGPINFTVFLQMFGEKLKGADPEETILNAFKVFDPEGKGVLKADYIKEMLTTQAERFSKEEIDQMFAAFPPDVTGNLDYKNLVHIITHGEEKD

Row | Structure (SMILES) | CDMF75 IC15 [µM] | IC50 [µM]
1 | O=C(NC1CCc2cc(-c3noc(C(F)F)n3)ccc21)C(F)F (centres unmarked) [Compound 1, N-(5-(5-(difluoromethyl)-1,2,4-oxadiazol-3-yl)-2,3-dihydro-1H-inden-1-yl)-2,2-difluoroacetamide] | 4.5 | 21.7
2 | O=C(NC1CCc2cc(-c3noc(C(F)F)n3)ccc21)c1ccccc1 (centres unmarked) [Compound 4, N-(5-(5-(difluoromethyl)-1,2,4-oxadiazol-3-yl)-2,3-dihydro-1H-inden-1-yl)benzamide] | 0.43 | 1.6
3 | Cn1cncc1C(=O)NC1CCc2cc(-c3noc(C(F)F)n3)ccc21 (centres unmarked) [Compound 6, N-(5-(5-(difluoromethyl)-1,2,4-oxadiazol-3-yl)-2,3-dihydro-1H-inden-1-yl)-1-methyl-1H-imidazole-5-carboxamide] | 0.7 | 3.4
4 | Cn1cc(C(=O)NC2CCc3cc(-c4noc(C(F)F)n4)ccc32)cn1 (centres unmarked) [Compound 7, N-(5-(5-(difluoromethyl)-1,2,4-oxadiazol-3-yl)-2,3-dihydro-1H-inden-1-yl)-1-methyl-1H-pyrazole-4-carboxamide] | 1.1 | 4.8
5 | O=C(NC1CCc2cc(-c3noc(C(F)F)n3)ccc21)c1cnc(Cl)s1 (centres unmarked) [Compound 8, 2-chloro-N-(5-(5-(difluoromethyl)-1,2,4-oxadiazol-3-yl)-2,3-dihydro-1H-inden-1-yl)thiazole-5-carboxamide] | 0.4 | 1.4
6 | Cc1ncc(C(=O)NC2CCc3cc(-c4noc(C(F)F)n4)ccc32)s1 (centres unmarked) [Compound 10, N-(5-(5-(difluoromethyl)-1,2,4-oxadiazol-3-yl)-2,3-dihydro-1H-inden-1-yl)-2-methylthiazole-5-carboxamide] | 1.0 | 3.4
7 | O=C(NC1CCc2cc(-c3noc(C(F)F)n3)ccc21)c1cncs1 (centres unmarked) [Compound 11, N-(5-(5-(difluoromethyl)-1,2,4-oxadiazol-3-yl)-2,3-dihydro-1H-inden-1-yl)thiazole-5-carboxamide] | 0.8 | 3.4
8 | O=C(Nc1ccccc1)NC1CCc2cc(-c3noc(C(F)F)n3)ccc21 (centres unmarked) [Compound 13, 1-(5-(5-(difluoromethyl)-1,2,4-oxadiazol-3-yl)-2,3-dihydro-1H-inden-1-yl)-3-phenylurea] | 0.5 | 22.1
9 | CC(C)NC(=O)NC1CCc2cc(-c3noc(C(F)F)n3)ccc21 (centres unmarked) [Compound 14, 1-(5-(5-(difluoromethyl)-1,2,4-oxadiazol-3-yl)-2,3-dihydro-1H-inden-1-yl)-3-isopropylurea] | 39.2 | > 39.2
10 | CC(C)(C)OC(=O)NC1CCc2cc(-c3noc(C(F)F)n3)ccc21 (centres unmarked) [Compound 16, tert-butyl (5-(5-(difluoromethyl)-1,2,4-oxadiazol-3-yl)-2,3-dihydro-1H-inden-1-yl)carbamate] | 8.9 | > 39.2
11 | CCc1nc(-c2cnc3c(c2)CCC3NC(=O)c2ccccc2)no1 (centres unmarked) [Compound 17, N-(3-(5-ethyl-1,2,4-oxadiazol-3-yl)-6,7-dihydro-5H-cyclopenta[b]pyridin-7-yl)benzamide] | 2.3 | 11.3
12 | CCn1nc(C)c(C(=O)NC2CCc3cc(-c4noc(C(F)F)n4)ccc32)n1 (centres unmarked) [Compound 20, N-(5-(5-(difluoromethyl)-1,2,4-oxadiazol-3-yl)-2,3-dihydro-1H-inden-1-yl)-2-ethyl-5-methyl-2H-1,2,3-triazole-4-carboxamide] | 2.3 | > 39.2
13 | O=C(NC1CCc2cc(-c3noc(C(F)F)n3)ccc21)c1ocnc1C1CC1 (centres unmarked) [Compound 21, 4-cyclopropyl-N-(5-(5-(difluoromethyl)-1,2,4-oxadiazol-3-yl)-2,3-dihydro-1H-inden-1-yl)oxazole-5-carboxamide] | 0.7 | 2.9
14 | Cc1nc(C(=O)NC2CCc3cc(-c4noc(C(F)F)n4)ccc32)c(C)o1 (centres unmarked) [Compound 22, N-(5-(5-(difluoromethyl)-1,2,4-oxadiazol-3-yl)-2,3-dihydro-1H-inden-1-yl)-2,5-dimethyloxazole-4-carboxamide] | 5.5 | 28.2
15 | Cc1cncc(C(=O)NC2CCc3cc(-c4noc(C(F)F)n4)ccc32)n1 (centres unmarked) [Compound 23, N-(5-(5-(difluoromethyl)-1,2,4-oxadiazol-3-yl)-2,3-dihydro-1H-inden-1-yl)-6-methylpyrazine-2-carboxamide] | 5.8 | 31.4
16 | CCc1nn(C)cc1C(=O)NC1CCc2cc(-c3noc(C(F)F)n3)ccc21 (centres unmarked) [Compound 25, N-(5-(5-(difluoromethyl)-1,2,4-oxadiazol-3-yl)-2,3-dihydro-1H-inden-1-yl)-3-ethyl-1-methyl-1H-pyrazole-4-carboxamide] | 3.9 | 16.5

Continued, values first:

Row | CDMF75 IC15 [µM] | IC50 [µM] | Structure (SMILES)
17 | 0.6 | 2 | Cc1nc(-c2ccc3c(c2)CCC3NC(=O)c2ccccc2)no1 (centres unmarked) [Compound 2, N-(5-(5-methyl-1,2,4-oxadiazol-3-yl)-2,3-dihydro-1H-inden-1-yl)benzamide]
18 | 1.8 | 7 | Cc1cc(C(=O)NC2CCc3cc(-c4noc(C)n4)ccc32)ccn1 (centres unmarked) [Compound 3, 2-methyl-N-(5-(5-methyl-1,2,4-oxadiazol-3-yl)-2,3-dihydro-1H-inden-1-yl)isonicotinamide]
19 | 1.4 | 6.7 | Cc1ncc(C(=O)NC2CCc3cc(-c4noc(C(F)F)n4)ccc32)o1 (centres unmarked) [Compound 9, N-(5-(5-(difluoromethyl)-1,2,4-oxadiazol-3-yl)-2,3-dihydro-1H-inden-1-yl)-2-methyloxazole-5-carboxamide]
20 | 0.6 | 2 | Cc1ncoc1C(=O)NC1CCc2cc(-c3noc(C(F)F)n3)ccc21 (centres unmarked) [Compound 12, N-(5-(5-(difluoromethyl)-1,2,4-oxadiazol-3-yl)-2,3-dihydro-1H-inden-1-yl)-4-methyloxazole-5-carboxamide]
21 | 0.6 | 2 | Cc1nc(-c2ccc3c(c2)OCC3NC(=O)c2ccccc2)no1 (centres unmarked) [Compound 15, N-(6-(5-methyl-1,2,4-oxadiazol-3-yl)-2,3-dihydrobenzofuran-3-yl)benzamide]
22 | 1.1 | 6.8 | Cc1cc(C(=O)NC2COc3cc(-c4noc(C)n4)ccc32)ccn1 (centres unmarked) [Compound 18, 2-methyl-N-(6-(5-methyl-1,2,4-oxadiazol-3-yl)-2,3-dihydrobenzofuran-3-yl)isonicotinamide]
23 | 1.3 | 4.6 | Cc1nc(C)c(C(=O)NC2CCc3cc(-c4noc(C(F)F)n4)ccc32)o1 (centres unmarked) [Compound 19, N-(5-(5-(difluoromethyl)-1,2,4-oxadiazol-3-yl)-2,3-dihydro-1H-inden-1-yl)-2,4-dimethyloxazole-5-carboxamide]
24 | 2.1 | 8 | Cc1cc(C(=O)NC2CCc3cc(-c4noc(C(F)F)n4)ccc32)cc(C)n1 (centres unmarked) [Compound 24, N-(5-(5-(difluoromethyl)-1,2,4-oxadiazol-3-yl)-2,3-dihydro-1H-inden-1-yl)-2,6-dimethylisonicotinamide]
25 | 7.8 | 30.5 | Cc1nccc(C(=O)NC2CCc3cc(-c4noc(C(F)F)n4)ccc32)n1 (centres unmarked) [Compound 26, N-(5-(5-(difluoromethyl)-1,2,4-oxadiazol-3-yl)-2,3-dihydro-1H-inden-1-yl)-2-methylpyrimidine-4-carboxamide]
